# From patent US7479560B2, “Creatine pyroglutamic acid salts and methods for their production and use in individuals” (New Cell Formulations, Ltd., priority 2006, dated 2009)
# Like-named read-outs stand apart in the source and are kept apart here.
# Tests used:
# [1] = test system: cerebral ischemia; settings: oral administration to experimental animals; cited from earlier work
# [2] = type: physicochemical; settings: for dissolution upon visual inspection: 2 g in 75 ml distilled water, stirred mechanically ~5 min
# [3] = pH measurement of 2 g of substance in 75 ml H2O
# [4] = test system: cognitive function; settings: cited from earlier work
# [5] = test system: age-associated memory impairment; settings: humans; cited from earlier work
compound,measurement,setting,value
"CN(CC(=O)O)C(=N)N [Creatine, N-methyl-N-guanyl Glycine]",ischemic brain infarction,[1],remarkable reduction
CN(CC(=O)O)C(=N)N.O [creatine monohydrate],dissolution upon visual inspection,[2]; Experiment 1,did not dissolve very well
same,dissolution after lowering pH by adding pyroglutamic acid,"[2]; Experiment 1, creatine monohydrate 2 g in 75 ml water, some pyroglutamic acid added",dissolved
same,dissolution after 30 min of stirring,"[2]; Experiment 2, 2 g in 75 ml distilled H2O, 30 min stirring",still a considerable amount of solids that did not dissolve
same,pH of 2 g in 75 ml H2O,[3],~7.00
"O=C1CC[C@@H](C(=O)O)N1 [pyroglutamic acid, L-pyroglutamic acid]",cognitive function in rats,[4],improve
same,age-associated memory impairment,[5],improves
same,pH of 2 g in 75 ml H2O,[3],~2.00
(2-(1-methylguanidino)acetyl)oxonium (S)-5-oxopyrrolidine-2-carboxylate [creatine pyroglutamate],dissolution upon visual inspection,[2]; Experiment 1,dissolved completely
same,time to complete dissolution of crystals,"[2]; Experiment 2, 2 g in 75 ml distilled H2O, stirred",≤ 5 min
same,pH of 2 g in 75 ml H2O,[3]; listed as product obtained in Experiment 2,3.09
same,pH of 2 g in 75 ml H2O,[3]; listed as unwashed product,~3.00
